Literature values as cited in US11760974B2, “Personalized 3D neural culture system for generating human oligodendrocytes and studying myelination in vitro” (The Board of Trustees of the Leland Stanford Junior …, priority 2017, dated 2023).

Experiments:
TNKS2 = target: T1, TNKS2 (Homo sapiens, UniProt Q9H2K2)
T1 sequence (Q9H2K2 1-1166): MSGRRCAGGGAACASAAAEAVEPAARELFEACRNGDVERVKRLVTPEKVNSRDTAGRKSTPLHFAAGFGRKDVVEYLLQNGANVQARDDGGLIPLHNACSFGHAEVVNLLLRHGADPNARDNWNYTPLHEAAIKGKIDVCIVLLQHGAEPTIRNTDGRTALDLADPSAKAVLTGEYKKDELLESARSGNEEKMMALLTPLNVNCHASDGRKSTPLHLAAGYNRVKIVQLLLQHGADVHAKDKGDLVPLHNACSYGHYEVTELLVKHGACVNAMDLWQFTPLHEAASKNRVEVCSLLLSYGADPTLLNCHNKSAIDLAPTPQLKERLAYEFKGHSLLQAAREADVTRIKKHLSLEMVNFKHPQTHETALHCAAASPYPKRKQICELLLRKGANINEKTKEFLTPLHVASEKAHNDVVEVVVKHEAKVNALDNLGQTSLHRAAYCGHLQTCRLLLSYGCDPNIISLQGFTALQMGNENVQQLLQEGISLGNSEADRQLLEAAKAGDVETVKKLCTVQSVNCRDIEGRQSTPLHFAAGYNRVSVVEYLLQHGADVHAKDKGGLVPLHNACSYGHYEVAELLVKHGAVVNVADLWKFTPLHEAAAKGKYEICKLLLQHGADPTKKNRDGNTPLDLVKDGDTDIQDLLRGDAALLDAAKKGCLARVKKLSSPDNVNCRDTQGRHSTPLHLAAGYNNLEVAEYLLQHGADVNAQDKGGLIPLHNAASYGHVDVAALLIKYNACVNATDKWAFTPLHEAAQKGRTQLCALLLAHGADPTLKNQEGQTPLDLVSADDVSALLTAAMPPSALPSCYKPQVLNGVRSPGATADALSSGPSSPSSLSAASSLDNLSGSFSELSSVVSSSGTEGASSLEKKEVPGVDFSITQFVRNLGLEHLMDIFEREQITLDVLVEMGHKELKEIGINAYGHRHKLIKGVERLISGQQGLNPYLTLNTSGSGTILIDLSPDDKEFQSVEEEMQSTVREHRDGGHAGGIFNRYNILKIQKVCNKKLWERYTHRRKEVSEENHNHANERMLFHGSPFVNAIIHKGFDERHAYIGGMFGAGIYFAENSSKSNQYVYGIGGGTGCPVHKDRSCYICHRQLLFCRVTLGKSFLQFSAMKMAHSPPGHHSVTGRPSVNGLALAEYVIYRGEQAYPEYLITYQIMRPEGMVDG

[1] = tested on: PORCN / Wnt3A-mediated TCF-luciferase activation in HEK293 cells; conditions: read-out: IC50 Wnt3A-mediated activation of TCF-binding site driving luciferase
[2] = tested on: Wnt pathway in L-cells expressing Wnt3A; conditions: read-out: IC50 Wnt pathway inhibition
[3] = target: T2, Wnt processing and secretion (Porcn) (Homo sapiens, UniProt Q9H237); conditions: cell-free assay
T2 sequence (Q9H237 1-461): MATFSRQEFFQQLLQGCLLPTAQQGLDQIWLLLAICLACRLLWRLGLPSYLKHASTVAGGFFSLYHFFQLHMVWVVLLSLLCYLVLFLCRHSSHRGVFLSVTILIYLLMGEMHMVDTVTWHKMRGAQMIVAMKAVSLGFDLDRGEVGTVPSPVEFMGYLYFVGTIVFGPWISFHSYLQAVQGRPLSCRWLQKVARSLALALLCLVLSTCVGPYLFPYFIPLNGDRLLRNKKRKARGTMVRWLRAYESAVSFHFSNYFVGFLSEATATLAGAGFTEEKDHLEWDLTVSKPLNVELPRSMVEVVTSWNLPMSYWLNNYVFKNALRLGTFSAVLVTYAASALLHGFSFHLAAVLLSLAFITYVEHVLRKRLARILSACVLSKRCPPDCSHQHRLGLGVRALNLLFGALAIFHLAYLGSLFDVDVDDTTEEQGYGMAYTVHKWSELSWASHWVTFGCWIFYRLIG

[4] = target: element-binding protein (CBP) (Homo sapiens, UniProt Q92793)
Chain of element-binding protein (CBP) (Q92793 whole entry): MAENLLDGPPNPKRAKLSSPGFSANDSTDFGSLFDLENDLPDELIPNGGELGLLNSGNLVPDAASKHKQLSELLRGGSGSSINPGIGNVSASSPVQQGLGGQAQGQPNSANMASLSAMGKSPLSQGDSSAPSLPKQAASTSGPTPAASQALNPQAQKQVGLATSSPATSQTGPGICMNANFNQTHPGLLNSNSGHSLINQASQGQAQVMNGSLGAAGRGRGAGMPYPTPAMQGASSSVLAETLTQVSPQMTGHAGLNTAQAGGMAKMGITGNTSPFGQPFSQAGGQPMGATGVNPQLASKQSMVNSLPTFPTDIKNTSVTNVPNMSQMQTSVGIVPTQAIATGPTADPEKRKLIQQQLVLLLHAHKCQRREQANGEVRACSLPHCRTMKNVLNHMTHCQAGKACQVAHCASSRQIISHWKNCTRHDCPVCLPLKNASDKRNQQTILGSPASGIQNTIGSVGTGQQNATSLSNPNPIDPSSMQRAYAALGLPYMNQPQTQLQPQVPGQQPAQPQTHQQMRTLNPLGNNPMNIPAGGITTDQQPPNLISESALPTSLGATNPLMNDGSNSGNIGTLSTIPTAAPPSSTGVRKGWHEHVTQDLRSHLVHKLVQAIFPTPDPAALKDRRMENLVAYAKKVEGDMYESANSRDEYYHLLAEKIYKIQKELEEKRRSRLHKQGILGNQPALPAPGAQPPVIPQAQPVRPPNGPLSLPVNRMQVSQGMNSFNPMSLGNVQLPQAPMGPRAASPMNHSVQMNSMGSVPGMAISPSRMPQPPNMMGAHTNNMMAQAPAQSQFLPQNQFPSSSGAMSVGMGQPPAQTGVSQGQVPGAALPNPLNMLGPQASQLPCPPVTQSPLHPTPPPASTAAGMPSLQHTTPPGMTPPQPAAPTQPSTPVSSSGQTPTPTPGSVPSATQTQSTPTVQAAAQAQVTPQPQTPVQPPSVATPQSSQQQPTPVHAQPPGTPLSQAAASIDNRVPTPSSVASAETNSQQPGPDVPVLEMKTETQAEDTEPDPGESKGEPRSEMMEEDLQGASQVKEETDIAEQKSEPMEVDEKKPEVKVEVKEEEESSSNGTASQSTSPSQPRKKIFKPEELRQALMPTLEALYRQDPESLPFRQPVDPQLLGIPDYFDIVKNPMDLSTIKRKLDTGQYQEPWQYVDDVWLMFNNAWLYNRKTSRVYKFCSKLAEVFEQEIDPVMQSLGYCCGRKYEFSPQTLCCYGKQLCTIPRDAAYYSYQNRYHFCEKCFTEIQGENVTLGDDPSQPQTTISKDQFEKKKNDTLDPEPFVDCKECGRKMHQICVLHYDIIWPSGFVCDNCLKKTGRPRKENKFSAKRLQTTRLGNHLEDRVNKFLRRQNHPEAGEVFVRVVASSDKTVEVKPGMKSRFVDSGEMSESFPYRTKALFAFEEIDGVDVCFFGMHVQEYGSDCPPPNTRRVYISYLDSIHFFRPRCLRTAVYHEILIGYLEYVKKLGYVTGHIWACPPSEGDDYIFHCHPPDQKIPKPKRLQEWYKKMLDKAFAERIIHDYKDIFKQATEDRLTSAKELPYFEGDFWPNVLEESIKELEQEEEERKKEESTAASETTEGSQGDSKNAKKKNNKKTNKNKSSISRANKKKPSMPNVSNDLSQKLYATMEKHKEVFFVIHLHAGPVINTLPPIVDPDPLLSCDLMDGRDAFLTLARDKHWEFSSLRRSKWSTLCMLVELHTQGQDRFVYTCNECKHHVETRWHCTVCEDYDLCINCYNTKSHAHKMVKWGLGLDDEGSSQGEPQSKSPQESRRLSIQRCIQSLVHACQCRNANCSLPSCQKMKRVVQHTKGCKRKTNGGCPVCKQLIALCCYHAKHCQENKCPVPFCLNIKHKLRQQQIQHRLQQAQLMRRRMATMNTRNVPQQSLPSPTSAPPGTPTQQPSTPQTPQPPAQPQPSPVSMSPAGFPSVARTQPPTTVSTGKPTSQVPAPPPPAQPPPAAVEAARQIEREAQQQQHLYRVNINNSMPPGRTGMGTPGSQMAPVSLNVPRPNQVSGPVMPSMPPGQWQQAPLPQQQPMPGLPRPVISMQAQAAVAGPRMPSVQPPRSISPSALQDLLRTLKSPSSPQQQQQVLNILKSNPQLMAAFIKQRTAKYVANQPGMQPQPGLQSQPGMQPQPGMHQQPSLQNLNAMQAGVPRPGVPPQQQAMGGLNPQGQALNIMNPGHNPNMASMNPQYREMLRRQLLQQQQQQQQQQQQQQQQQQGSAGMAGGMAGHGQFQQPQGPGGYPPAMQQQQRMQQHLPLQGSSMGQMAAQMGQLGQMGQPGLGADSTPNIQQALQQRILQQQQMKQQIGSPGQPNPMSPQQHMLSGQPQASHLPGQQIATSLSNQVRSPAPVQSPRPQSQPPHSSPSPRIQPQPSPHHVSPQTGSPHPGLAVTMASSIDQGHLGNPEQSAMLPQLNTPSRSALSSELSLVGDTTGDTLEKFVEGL

Porcn = target: T3, Porcn (Homo sapiens, UniProt Q9H237); conditions: read-out: EC50 Porcn inhibitor
T3 sequence (Q9H237 1-461): T2 sequence (Q9H237 1-461)

[5] = tested on: Wnt signaling in TM3 cells (PORCN); conditions: read-out: IC50 Wnt signaling inhibition

In the case of `COc1ccc(-n2c(SCCCN3C(=O)c4cccc5cccc(c45)C3=O)nnc2-c2ccncc2)cc1` [WIKI4], the IC50 (TNKS2) is listed as 15 nM.
For `Cc1cc(-c2ccc(CC(=O)Nc3ccc(-c4cccnc4)cc3)cc2)ccn1` [Wnt-C59], the IC50 [1] is given as 0.074 nM.
For `O=C(Nc1cccc2cccnc12)c1ccc(N2C(=O)[C@@H]3[C@H](C2=O)[C@@H]2C=C[C@H]3C2)cc1` [IWR-1-endo], the IC50 [2] is listed as 180 nM.
In the case of `Cc1ccc2nc(NC(=O)CSc3nc4c(c(=O)n3-c3ccccc3)SCC4)sc2c1` [IWP-2], the IC50 [3] is listed as 27 nM.
For `O=C1[C@H](Cc2ccc(O)cc2)N2C(=O)CCN(C(=O)NCc3ccccc3)[C@H]2CN1Cc1cccc2ccccc12` [ICG-001], the IC50 [4] is given as 3000 nM.
For `O=C(CSc1nc2c(c(=O)n1-c1ccccc1)SCC2)Nc1ccc(-c2ccccc2)cn1` [IWP-L6], the EC50 (Porcn) is given as 0.5 nM.
In the case of `Cc1cc(-c2ncc(CC(=O)Nc3ccc(-c4cnccn4)cn3)cc2C)ccn1` [LGK-974], the IC50 [5] is listed as 0.4 nM.
